Source: paper PMC6789118, “Structural basis for substrate specificity and regulation of nucleotide sugar transporters in the lipid bilayer” (Nature Communications, 2019)
One block for each molecule: values may come before it.

How the values were obtained:
Vrg4 N220A variant = target: T1, Vrg4 N220A variant (Saccharomyces cerevisiae, UniProt P40107, N220A); test: IC50 competition of 3H-GMP uptake into proteoliposomes, N220A variant; format: biochemical
T1 construct: GFP (cleaved yes); made in house; host or cells: S. cerevisiae strain BJ5460
Method: (§1) Vrg4 was reconstituted into liposomes made from yeast polar lipids using the dilution method into preformed lipid vesicles. Chloroform was removed from yeast polar lipids (Avanti polar lipids) through the use of a rotary evaporator to obtain a thin film. The lipids were washed twice in pentane and then resuspended at 5 mg ml^−1 in lipid buffer (20 mM HEPES pH 7.5, 100 mM KCl). These lipid vesicles were frozen and thawed twice in liquid nitrogen and stored at −80 °C until required. For reconstitution, the lipids were thawed and then extruded first through a 0.8-μm filter and then through a 0.4-μm filter. Purified Vrg4 in DM (at 0.5 μg μl^−1 concentration) was added to the lipids at a final lipid:protein ratio of 80:1 and incubated for 1 h at room temperature, then for a further 1 h on ice; for the no-protein liposome control, the same volume of gel filtration buffer containing 0.3% DM was added. […] The amount of protein (both wild-type and mutant variants) reconstituted into the lipids was quantified by SDS–PAGE and densitometry.
(§2) To analyse transport activity, proteoliposomes were thawed and the desired concentration of internal substrate was added (typically 0.5 mM for mutant variant analysis). […] The amount of GMP transported inside the liposomes was calculated by scintillation counting in Ultima Gold (Perkin Elmer) […]

Vrg4 N221A variant = target: T2, Vrg4 N221A variant (Saccharomyces cerevisiae, UniProt P40107, N221A); test: IC50 competition of 3H-GMP uptake into proteoliposomes, N221A variant; format: biochemical
T2 construct: GFP (cleaved yes); made in house; host or cells: S. cerevisiae strain BJ5460
Method: as §1, §2

Vrg4 wild type (WT) = test system: Vrg4 wild type (WT); parameters: method as in PMID 29143814; conditions: WT Vrg4 in yeast polar lipid liposomes, 0.5 mM GMP inside, 3H-GMP uptake, cold competitor outside, 3 min; WT data published previously ref 10; cited from earlier work
Vrg4 [1] = target: T3, Vrg4 (Saccharomyces cerevisiae, UniProt P40107); test: Liposome-based transport rates under different antiport conditions; format: biochemical; conditions: 22 °C, rank among antiport conditions
T3 construct: GFP (cleaved yes); made in house; host or cells: S. cerevisiae strain BJ5460
T3 sequence (P40107 1-337): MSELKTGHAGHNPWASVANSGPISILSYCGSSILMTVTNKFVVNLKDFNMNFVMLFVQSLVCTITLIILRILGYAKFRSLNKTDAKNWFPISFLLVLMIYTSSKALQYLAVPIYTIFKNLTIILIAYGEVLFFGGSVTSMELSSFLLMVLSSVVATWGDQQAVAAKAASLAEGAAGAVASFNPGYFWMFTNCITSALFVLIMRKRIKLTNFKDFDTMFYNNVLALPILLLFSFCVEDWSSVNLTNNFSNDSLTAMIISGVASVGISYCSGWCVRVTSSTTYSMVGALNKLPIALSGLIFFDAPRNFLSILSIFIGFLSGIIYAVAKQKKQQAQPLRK
Method: as §1, §2

Vrg4 S269A variant = target: T4, Vrg4 S269A variant (Saccharomyces cerevisiae, UniProt P40107, S269A); test: IC50 competition of 3H-GMP uptake into proteoliposomes, S269A variant; format: biochemical; conditions: S269A variant (removal of S269); in words
T4 construct: GFP (cleaved yes); made in house; host or cells: S. cerevisiae strain BJ5460
Method: as §1, §2

Vrg4 Y281F variant = target: T5, Vrg4 Y281F variant (Saccharomyces cerevisiae, UniProt P40107, Y281F); test: IC50 competition of 3H-GMP uptake into proteoliposomes, Y281F variant; format: biochemical
T5 construct: GFP (cleaved yes); made in house; host or cells: S. cerevisiae strain BJ5460
Method: as §1, §2

Vrg4 S266A variant = target: T6, Vrg4 S266A variant (Saccharomyces cerevisiae, UniProt P40107, S266A); test: IC50 competition of 3H-GMP uptake into proteoliposomes, S266A variant; format: biochemical; conditions: in words
T6 construct: GFP (cleaved yes); made in house; host or cells: S. cerevisiae strain BJ5460
Method: as §1, §2

Vrg4 [2] = target: T3, Vrg4; parameters: method as in PMID 29143814; conditions: GDP-mannose:GMP compared with GMP:GMP in liposome-based assays ref 10; cited from earlier work
Vrg4 K118A variant [3] = target: T7, Vrg4 K118A variant (Saccharomyces cerevisiae, UniProt P40107, K118A); test: Thermal stability in the presence of ligand, K118A variant; format: binding; conditions: 1 mM GMP
T7 construct: GFP (cleaved yes); made in house; host or cells: S. cerevisiae strain BJ5460
Method: (§3) Thermal stability of protein samples was analysed using a Prometheus NT.48 (NanoTemper Technologies)[39]. The proteins were diluted to a final concentration of 0.7 mg ml^−1 into buffer containing 20 mM Hepes, pH 7.5, 50 mM KCl, 2 mM magnesium sulphate and 0.03% (w/v) DDM or 0.3% DM. Thermal measurements were carried out in a range from 20 to 95 °C with 1 °C per min steps. The resulting melting curves were generated by plotting the first derivative of the fluorescence ratio at 330 nm/350 nm (excitation 280 nm) against temperature. For stability in the presence of ligand (GMP) the ligand was added to the sample at a final concentration of 0.5 mM and the sample was incubated at room temperature for 5 min prior to analysis. For the sample in liposomes, reconstituted Vrg4, at a protein concentration of 0.4 mg ml^−1, in yeast polar lipids were prepared in 20 mM Hepes, pH 7.5, 50 mM KCl, 2 mM magnesium sulphate and extruded through a 0.4 μm membrane prior to analysis. For the solubilised liposome sample, liposomes were solubilised in 1.5% DDM for one hour and centrifuged at 100,000 × g for 30 min prior to analysis.

Vrg4 Y281A variant = target: T8, Vrg4 Y281A variant (Saccharomyces cerevisiae, UniProt P40107, Y281A); test: Thermal stability in the presence of ligand, Y281A variant; format: binding; conditions: 1 mM GMP, N=3
T8 construct: GFP (cleaved yes); made in house; host or cells: S. cerevisiae strain BJ5460
Method: as §3

Vrg4 K118A variant [4] = target: T9, Vrg4 K118A variant (Saccharomyces cerevisiae, UniProt P40107 1-337, K118A); test: cell-based or functional assay
T9 sequence: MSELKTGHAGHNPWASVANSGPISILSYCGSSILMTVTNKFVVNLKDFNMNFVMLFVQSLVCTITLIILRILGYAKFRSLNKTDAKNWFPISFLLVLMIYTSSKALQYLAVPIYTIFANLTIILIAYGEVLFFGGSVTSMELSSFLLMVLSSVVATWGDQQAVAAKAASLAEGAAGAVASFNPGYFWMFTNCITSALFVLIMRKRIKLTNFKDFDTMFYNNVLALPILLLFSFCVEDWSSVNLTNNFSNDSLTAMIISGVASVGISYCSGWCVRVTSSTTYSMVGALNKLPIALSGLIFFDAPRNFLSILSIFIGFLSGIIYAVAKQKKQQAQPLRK

T5 sequence (P40107 whole entry Y281F): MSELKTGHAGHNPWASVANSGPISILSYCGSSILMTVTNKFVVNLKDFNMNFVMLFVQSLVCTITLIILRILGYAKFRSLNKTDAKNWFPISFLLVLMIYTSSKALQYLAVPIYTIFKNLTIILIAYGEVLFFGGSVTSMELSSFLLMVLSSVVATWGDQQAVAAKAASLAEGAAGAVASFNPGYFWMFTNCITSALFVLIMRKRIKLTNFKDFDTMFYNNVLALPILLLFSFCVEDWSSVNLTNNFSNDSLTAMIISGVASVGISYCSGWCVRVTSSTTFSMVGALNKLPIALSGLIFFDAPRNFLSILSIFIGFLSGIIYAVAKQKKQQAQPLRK
T6 sequence (P40107 whole entry S266A): as the sequence (P40107 whole entry Y281F) above, with S266A, F281Y counted along it
T4 sequence (P40107 whole entry S269A): as the sequence (P40107 whole entry Y281F) above, with S269A, F281Y counted along it
T1 sequence (P40107 whole entry N220A): as the sequence (P40107 whole entry Y281F) above, with N220A, F281Y counted along it
T2 sequence (P40107 whole entry N221A): as the sequence (P40107 whole entry Y281F) above, with N221A, F281Y counted along it
T8 sequence (P40107 whole entry Y281A): as the sequence (P40107 whole entry Y281F) above, with F281A counted along it

Molecule: Nc1ncnc2c1ncn2[C@@H]1O[C@H](COP(=O)(O)O)[C@@H](O)[C@H]1O [AMP]
affinity compared with WT (Vrg4 N220A variant; N220A variant, IC50 analysis, in words): markedly reduced
IC50 (Vrg4 N221A variant): 27 µM
IC50 (Vrg4 wild type (WT)): 50 µM

Molecule: Nc1nc2c(ncn2[C@@H]2O[C@H](COP(=O)(O)OP(=O)(O)O[C@H]3O[C@H](CO)[C@@H](O)[C@H](O)[C@@H]3O)[C@@H](O)[C@H]2O)c(=O)[nH]1 [GDP-mannose]
transport rate (Vrg4 [1]; GDP-mannose:GDP-mannose antiport (transported against itself), 0.5 mM inside, 20 μM outside): fastest
change in the IC50 compared with WT (Vrg4 S269A variant): did not result in any significant change
affinity of the variant compared with wild type (Vrg4 Y281F variant; Y281F variant, IC50 analysis, in words): remains the same as wild type
IC50 (Vrg4 wild type (WT)): 7.6 µM
affinity compared with WT (Vrg4 S266A variant; IC50 analysis): only slightly reduced
transport efficiency (Vrg4 [2]): more efficient

Molecule: Nc1nc2c(ncn2[C@@H]2O[C@H](COP(=O)(O)O)[C@@H](O)[C@H]2O)c(=O)[nH]1 [GMP, guanine monophosphate]
transport rate (Vrg4 [1]; GMP:AMP antiport, 1 mM AMP inside, 20 μM GMP outside): slowest
change in the IC50 compared with WT (Vrg4 S269A variant): did not result in any significant change
IC50 (Vrg4 Y281F variant): 23 µM
IC50 (Vrg4 N220A variant): 12 µM
thermal stabilisation of the protein by ligand (Vrg4 K118A variant [3]): stabilised to a similar extent as WT Vrg4
IC50 (Vrg4 N221A variant): 22 µM
thermal stabilisation of the protein by ligand (Vrg4 Y281A variant): not stabilised
IC50 (Vrg4 wild type (WT)): 7 µM
IC50 value for GMP transport compared with WT (Vrg4 S266A variant): significant increase

dominant negative assay: transport of 3H-GMP into liposomes reconstituted with equimolar WT and K118A (also at 75 and 25% WT), relative to WT alone (Vrg4 K118A variant [4]): ~75%
B1: Vrg4, GDP-mannose transporter from Saccharomyces cerevisiae (wild type) (natural protein)
chain: MSELKTGHAGHNPWASVANSGPISILSYCGSSILMTVTNKFVVNLKDFNMNFVMLFVQSLVCTITLIILRILGYAKFRSLNKTDAKNWFPISFLLVLMIYTSSKALQYLAVPIYTIFKNLTIILIAYGEVLFFGGSVTSMELSSFLLMVLSSVVATWGDQQAVAAKAASLAEGAAGAVASFNPGYFWMFTNCITSALFVLIMRKRIKLTNFKDFDTMFYNNVLALPILLLFSFCVEDWSSVNLTNNFSNDSLTAMIISGVASVGISYCSGWCVRVTSSTTYSMVGALNKLPIALSGLIFFDAPRNFLSILSIFIGFLSGIIYAVAKQKKQQAQPLRK
